Results published in ChEMBL document CHEMBL1165957, “Alkaloids from the bark of Guatteria hispida and their evaluation as antioxidant and antimicrobial agents” (2010).
In brackets after ≈: the same amount, converted by molar mass. Activity calls are given as the source filed them. No cut-off for these calls is given here.

What was measured:
Format in all cases: functional
[1] = Antioxidant activity assessed as trolox equivalents of peroxyl radical scavenging activity by ORAC assay; parameters: unit not given here
Kocuria rhizophila = experiment: Antimicrobial activity against Kocuria rhizophila ATCC 9341 by broth dilution method
Staphylococcus aureus [2] = experiment: Antimicrobial activity against Staphylococcus aureus ATCC 14458 by broth dilution method
Staphylococcus aureus [3] = experiment: Antimicrobial activity against Staphylococcus aureus 7+ penicillinase positive + by broth dilution method
Staphylococcus aureus [4] = experiment: Antimicrobial activity against Staphylococcus aureus 8- penicillinase negative by broth dilution method
[5] = system: Staphylococcus epidermidis; experiment: Antimicrobial activity against Staphylococcus epidermidis 6ep by broth dilution method
Escherichia coli = experiment: Antimicrobial activity against Escherichia coli ATCC 10538 by broth dilution method
Pseudomonas aeruginosa = experiment: Antimicrobial activity against Pseudomonas aeruginosa ATCC 27853 by broth dilution method
Candida albicans = experiment: Antimicrobial activity against Candida albicans ATCC 10231 by broth dilution method
Candida tropicalis = experiment: Antimicrobial activity against Candida tropicalis CT by broth dilution method
Nakaseomyces glabratus = experiment: Antimicrobial activity against Candida glabrata ATCC 30070 by broth dilution method
Candida parapsilosis = experiment: Antimicrobial activity against Candida parapsilosis ATCC 22019 by broth dilution method
Candida dubliniensis [6] = experiment: Antimicrobial activity against Candida dubliniensis ATCC 777 by broth dilution method
Candida dubliniensis [7] = experiment: Antimicrobial activity against Candida dubliniensis ATCC 778157 by broth dilution method

| Structure (SMILES) | Activity [1] | MIC (Kocuria rhizophila) | MIC (Staphylococcus aureus [2]) | MIC (Staphylococcus aureus [3]) | MIC (Staphylococcus aureus [4]) | MIC [5] [µg/mL] | MIC (Escherichia coli) | MIC (Pseudomonas aeruginosa) | MIC (Candida albicans) | MIC (Candida tropicalis) | MIC (Nakaseomyces glabratus) | MIC (Candida dubliniensis [6]) [µg/mL] | MIC (Candida dubliniensis [7]) [µg/mL] | also measured |
| --- | --- | --- | --- | --- | --- | --- | --- | --- | --- | --- | --- | --- | --- | --- |
| COc1cc2c(cc1O)C[C@H]1c3cc(O)c(OC)cc3CCN1C2 | 1.4 |  |  |  |  |  |  |  |  |  |  |  |  |  |
| COc1cc2c(cc1O)C[C@H]1c3cc(OC)c(O)cc3CCN1C2 | 1.67 |  |  |  |  |  |  |  |  |  |  |  |  |  |
| COc1cc2c3c(c1OC)-c1ccccc1CC3NCC2 (configuration not stated) | 0.27 |  |  |  |  |  |  |  |  |  |  |  |  |  |
| COc1ccc2c(c1)C(=O)c1nccc3c(O)c(OC)c(OC)c-2c13 | 1.62 |  |  |  |  |  |  |  |  |  |  |  |  |  |
| O=C(O)/C=C/c1ccc(O)c(O)c1 | 2.95 |  |  |  |  |  |  |  |  |  |  |  |  |  |
| O=c1c(O)c(-c2ccc(O)c(O)c2)oc2cc(O)cc(O)c12 | 5.62 |  |  |  |  |  |  |  |  |  |  |  |  |  |
| O=c1c(O[C@@H]2O[C@H](CO)[C@@H](O)[C@H](O)[C@H]2O)c(-c2ccc(O)c(O)c2)oc2cc(O)cc(O)c12 | 5.25 |  |  |  |  |  |  |  |  |  |  |  |  |  |
| O=C(N[C@H](CO)[C@H](O)c1ccc([N+](=O)[O-])cc1)C(Cl)Cl [CHLORAMPHENICOL] |  | 50 µg/mL (≈ 155 µM) | 25 µg/mL (≈ 77.4 µM) | 25 µg/mL | 25 µg/mL (≈ 77.4 µM) | 50 (≈ 155 µM) | 50 µg/mL (≈ 155 µM) | 850 µg/mL (≈ 2630 µM) |  |  |  |  |  |  |
| COc1c(OC)c2c3c(nccc3c1OC)C(=O)c1ccccc1-2 [HOMOMOSCHATOLINE] | 0.5 | inactive | inactive | inactive | inactive | 25 (≈ 77.8 µM) | inactive | inactive | inactive | inactive | inactive | 12.5 (≈ 38.9 µM) | 25 (≈ 77.8 µM) | MIC (Candida parapsilosis): inactive |
| CC(=O)N1CCN(c2ccc(OCC3COC(Cn4ccnc4)(c4ccc(Cl)cc4Cl)O3)cc2)CC1 (configuration not stated) [KETOCONAZOLE] |  |  |  |  |  |  |  |  | 12.5 µg/mL (≈ 23.5 µM) | 12.5 µg/mL (≈ 23.5 µM) | 12.5 µg/mL (≈ 23.5 µM) | 12.5 (≈ 23.5 µM) | 12.5 (≈ 23.5 µM) | MIC (Candida parapsilosis; Lodderomyces parapsilosis): 12.5 µg/mL (≈ 23.5 µM) |
| O=C1c2ccccc2-c2c3c(cc4ccnc1c24)OCO3 [LIRIODENINE] | 0.3 | inactive | inactive | inactive | inactive | 50 (≈ 182 µM) | inactive | inactive | inactive | inactive | inactive | 50 (≈ 182 µM) | 100 (≈ 363 µM) | MIC (Candida parapsilosis): inactive |
| COc1cc2ccnc3c2c(c1OC)-c1ccccc1C3=O [LYSICAMINE] | 0.86 | inactive | inactive | inactive | inactive | 50 (≈ 172 µM) | inactive | inactive | inactive | inactive | inactive | 100 (≈ 343 µM) | 100 (≈ 343 µM) | MIC (Candida parapsilosis): inactive |
